pIC50: −log10 of the molar value.
Key:
CDK6/CyclinD1 = CDK6/CyclinD1 (Homo sapiens (Human), UniProt Q00534); assay: CDK6/CyclinD1 enzyme activity test (LANCE Ultra TR-FRET); assay type: biochemical; conditions: 250 μM ATP, 25° C. 120 minutes, read-out: CDK6/Cyclin D1 IC50
Description: CDK6/CyclinD1 Enzyme Reaction System
(§1) Preparation of Kinase Buffer:
(§2) The composition of the buffer: 50 mM of hydroxyethylpiperazine ethanesulfonic acid solution at pH 7.5, 1 mM of ethylenediaminetetraacetic acid, 10 mM of magnesium chloride, 0.01% Brij-35, and 2 mM of dithiothreitol.
(§3) Enzymes, substrate LANCE Ultra ULight™-4E-BP-1(Thr37146) Peptide, ATP, and inhibitors were diluted by kinase buffer.
(§4) The compounds to be tested were diluted 5-fold with a multi-channel pipette to the eighth concentration, that is, from 40 μM to 0.512 nM, the concentration of DMSO was 4%, and a double-hole experiment was set up. […] The reaction system was reacted at 25° C. for 120 minutes. After the reaction, 5 μL mixture of EDTA and 2× LANCE™ Detection Buffer (1:1) were added to each well, the reaction was carried out at 25° C. for 5 minutes, after the reaction was completed, 5 μL of LANCE Ultra Eu-anti-P-4E-BP1(Thr37MS) (4 nM) was added to each well, the reaction was carried out at 25° C. for 60 minutes, the reaction signal was detected by Nivo instrument according to the principle of time-resolved fluorescence resonance energy transfer.
(§5) The equation (Sample−Min)/(Max−Min)*100% was used to convert the raw data into inhibition rate, and the value of IC50 can be obtained by curve fitting with four parameters (obtained by log (inhibitor) vs. response-Variable slope mode in GraphPad Prism). The enzymatic inhibitory activity of the compounds of the present disclosure on CDK1/CyclinB1, CDK2/CyclinA2, CDK2/CyclinE1, CDK4/CyclinD1, CDK6/CyclinD1, CDK7/CyclinH/MAT1, CDK9/CyclinT1 was provided in Table 1.

CDK4/CyclinD1 = CDK4/CyclinD1 (Homo sapiens (Human), UniProt P11802); assay: CDK4/CyclinD1 enzyme activity test (LANCE Ultra TR-FRET); assay type: biochemical; conditions: 350 μM ATP, 25° C. 120 minutes, read-out: CDK4/Cyclin D1 IC50
Chain of CDK4/CyclinD1 (P11802 whole entry): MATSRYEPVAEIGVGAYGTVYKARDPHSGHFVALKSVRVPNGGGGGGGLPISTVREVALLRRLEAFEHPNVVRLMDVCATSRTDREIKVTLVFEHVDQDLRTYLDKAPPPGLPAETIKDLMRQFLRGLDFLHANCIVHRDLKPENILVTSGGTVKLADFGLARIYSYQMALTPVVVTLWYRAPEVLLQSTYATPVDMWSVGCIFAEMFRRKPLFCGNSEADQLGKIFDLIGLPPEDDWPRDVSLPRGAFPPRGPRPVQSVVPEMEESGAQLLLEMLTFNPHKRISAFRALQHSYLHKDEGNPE
Chain of CDK4/CyclinD1 (P24385 whole entry partner): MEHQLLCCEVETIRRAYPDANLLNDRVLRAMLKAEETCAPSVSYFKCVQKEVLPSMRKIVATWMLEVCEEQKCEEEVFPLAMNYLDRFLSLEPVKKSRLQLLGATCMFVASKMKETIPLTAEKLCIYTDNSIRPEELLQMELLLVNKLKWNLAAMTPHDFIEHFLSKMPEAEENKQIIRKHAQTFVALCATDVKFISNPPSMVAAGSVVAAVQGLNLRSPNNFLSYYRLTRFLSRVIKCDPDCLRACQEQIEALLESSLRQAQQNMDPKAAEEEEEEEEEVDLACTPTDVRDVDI
Description: CDK4/CyclinD1 Enzyme Reaction System
as §1, §2, §3, §4, §5

CDK2/CyclinA2 = CDK2/CyclinA2 (Homo sapiens (Human), UniProt P24941); assay: CDK2/CyclinA2 enzyme activity test (ADP-Glo); assay type: biochemical; conditions: 50 μM ATP, 25° C. 60 minutes, read-out: CDK2/Cyclin A2 IC50
Description: CDK2/CyclinA2 Enzyme Reaction System
(§6) Enzymes, substrates, ATP, and inhibitors were diluted by kinase buffer in the kit. The compounds to be tested were diluted 5-fold with a multi-channel pipette to the eighth concentration, that is, from 50 μM to 0.65 nM, the concentration of DMSO was 5%, and a double-hole experiment was set up. 1 μL of each concentration gradient of inhibitors, 2 μL of CDK2/CyclinA2 enzyme (1.6 ng), 2 μL mixture of substrate and ATP (50 μM ATP, 0.1 μg/μL substrate) were added to the microplates, and the final concentration gradient of the compound was 10 μM to 0.13 nM. The reaction system was reacted at 25° C. for 60 minutes. After the reaction, 5 μL of ADP-Glo reagent was added to each well, the reaction was carried out at 25° C. for 40 minutes, after the reaction was completed, 10 μL of kinase detection reagent was added to each well, the reaction was carried out at 25° C. for 30 minutes, the multiple label analyzer was used to read the chemiluminescence with an integration time of 0.5 seconds
as §5

CDK2/CyclinE1 = CDK2/CyclinE1 (Homo sapiens (Human), UniProt P24941); assay: CDK2/CyclinE1 enzyme activity test (ADP-Glo); assay type: biochemical; conditions: 150 μM ATP, 25° C. 60 minutes, read-out: CDK2/Cyclin E1 IC50
Description: CDK2/CyclinE1 Enzyme Reaction System
as §6, with “CDK2/CyclinE1” for “CDK2/CyclinA2”, “(2” for “(1.6”, “(150” for “(50”, “seconds.” for “seconds”
as §5

OVCAR-3 cells = assay: Cell activity test, anti-proliferation (CellTiter Glo), OVCAR-3; assay type: cell-based, human; conditions: OVCAR-3, 7 days of culture
Description: 2) Day 1: Laying Cell Plates
(6) 0.7 mL of cell suspension was pipetted into the counting cup, the cells were counted on ViCell XR, and the cell suspension was diluted separately with culture medium to the required cell concentration for laying cell plates: 1000/30 ul.
(7) Microplates (2 plates) were required, 100 uL of phosphate buffered saline was added to the peripheral wells of the 384-well plate, 30 uL of cell suspension was added to the other wells, and the cell plate was placed into incubator for culture.
(1) Compound preparation: the stock solution of the compound to be tested was 10 mM.
(2) The compound to be tested was diluted 3 times with DMSO for 10 gradients.
(2) The compound to be tested was diluted with culture medium, and the highest final concentration was 10 μM.
(4) 10 μL of the compound was pipetted into the 384-well plate, and then the cell plate was placed back into the incubator for culture.
4) Adding CTG and Reading the Plate
(1) After 7 days of culture, 50 ul CellTiter Glo was added to the cell plate, shaken for 10 minutes in the dark, and left at room temperature for 5 minutes.
(2) The plate was read on Envision with the program: US LUM 384 (CPS). The experiment was originally stored in the personal disk:
1. The mean and standard deviation of 0% inhibition (DMSO row, ZPE) and 100% inhibition (PBS row, HPE) were calculated;
2. Inhibition rate (%)=(1−(sample value-average value of 100% inhibition)/(average value of 0% inhibition-average value of 100% inhibition))*100;
3. The curve was fitted by GraphPad 8.0 software;

CDK1/CyclinB1 = CDK1/CyclinB1 (Homo sapiens (Human), UniProt P06493); assay: CDK1/CyclinB1 enzyme activity test (ADP-Glo); assay type: biochemical; conditions: 25 μM ATP, 25° C. 120 minutes, read-out: CDK1/Cyclin B IC50
Chain of CDK1/CyclinB1 (P06493 whole entry): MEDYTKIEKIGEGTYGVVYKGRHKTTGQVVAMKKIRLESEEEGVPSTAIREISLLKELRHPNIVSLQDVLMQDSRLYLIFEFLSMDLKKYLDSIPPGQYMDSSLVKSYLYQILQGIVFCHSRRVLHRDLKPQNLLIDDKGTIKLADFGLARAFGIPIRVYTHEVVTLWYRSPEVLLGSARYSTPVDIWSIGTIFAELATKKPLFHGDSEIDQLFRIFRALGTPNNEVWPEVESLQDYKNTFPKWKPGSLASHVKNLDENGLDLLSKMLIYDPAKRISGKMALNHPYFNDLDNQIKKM
Chain of CDK1/CyclinB1 (P14635 whole entry partner): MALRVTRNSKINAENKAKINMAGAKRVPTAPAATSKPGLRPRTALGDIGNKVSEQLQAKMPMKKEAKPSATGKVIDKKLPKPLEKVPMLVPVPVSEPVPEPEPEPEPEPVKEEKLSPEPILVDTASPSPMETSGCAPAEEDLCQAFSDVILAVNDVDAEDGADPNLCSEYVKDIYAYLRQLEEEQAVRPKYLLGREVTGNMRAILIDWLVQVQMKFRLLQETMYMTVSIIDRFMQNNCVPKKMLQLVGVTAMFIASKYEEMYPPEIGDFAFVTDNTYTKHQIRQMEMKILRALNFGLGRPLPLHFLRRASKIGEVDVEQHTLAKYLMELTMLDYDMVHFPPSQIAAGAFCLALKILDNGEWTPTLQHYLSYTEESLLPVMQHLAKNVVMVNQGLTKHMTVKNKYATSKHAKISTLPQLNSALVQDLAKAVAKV
Description: CDK1/CyclinB1 Enzyme Reaction System
as §6, with “CDK1/CyclinB1” for “CDK2/CyclinA2”, “(12.5” for “(1.6”, “(25” for “(50”, “adenosine triphosphate, 0.2” for “ATP, 0.1”, “120” for “60”, “seconds.” for “seconds”
as §5

CDK9/CyclinT1 = CDK9/CyclinT1 (Homo sapiens (Human), UniProt P50750); assay: CDK9/CyclinT1 enzyme activity test (ADP-Glo); assay type: biochemical; conditions: 100 μM ATP, 25° C. 120 minutes, read-out: CDK 9/Cyclin T1 IC50
Chain of CDK9/CyclinT1 (P50750 whole entry): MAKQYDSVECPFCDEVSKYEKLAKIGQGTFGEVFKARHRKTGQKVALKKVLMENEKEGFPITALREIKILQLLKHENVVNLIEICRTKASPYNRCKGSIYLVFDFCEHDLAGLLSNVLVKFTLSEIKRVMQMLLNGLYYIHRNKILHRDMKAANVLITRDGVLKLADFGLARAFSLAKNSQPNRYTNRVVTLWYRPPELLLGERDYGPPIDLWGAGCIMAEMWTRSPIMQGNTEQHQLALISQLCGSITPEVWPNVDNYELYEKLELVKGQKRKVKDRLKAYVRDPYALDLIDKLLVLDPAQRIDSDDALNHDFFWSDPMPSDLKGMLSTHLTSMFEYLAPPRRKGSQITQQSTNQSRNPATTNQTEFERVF
Chain of CDK9/CyclinT1 (O60563 whole entry partner): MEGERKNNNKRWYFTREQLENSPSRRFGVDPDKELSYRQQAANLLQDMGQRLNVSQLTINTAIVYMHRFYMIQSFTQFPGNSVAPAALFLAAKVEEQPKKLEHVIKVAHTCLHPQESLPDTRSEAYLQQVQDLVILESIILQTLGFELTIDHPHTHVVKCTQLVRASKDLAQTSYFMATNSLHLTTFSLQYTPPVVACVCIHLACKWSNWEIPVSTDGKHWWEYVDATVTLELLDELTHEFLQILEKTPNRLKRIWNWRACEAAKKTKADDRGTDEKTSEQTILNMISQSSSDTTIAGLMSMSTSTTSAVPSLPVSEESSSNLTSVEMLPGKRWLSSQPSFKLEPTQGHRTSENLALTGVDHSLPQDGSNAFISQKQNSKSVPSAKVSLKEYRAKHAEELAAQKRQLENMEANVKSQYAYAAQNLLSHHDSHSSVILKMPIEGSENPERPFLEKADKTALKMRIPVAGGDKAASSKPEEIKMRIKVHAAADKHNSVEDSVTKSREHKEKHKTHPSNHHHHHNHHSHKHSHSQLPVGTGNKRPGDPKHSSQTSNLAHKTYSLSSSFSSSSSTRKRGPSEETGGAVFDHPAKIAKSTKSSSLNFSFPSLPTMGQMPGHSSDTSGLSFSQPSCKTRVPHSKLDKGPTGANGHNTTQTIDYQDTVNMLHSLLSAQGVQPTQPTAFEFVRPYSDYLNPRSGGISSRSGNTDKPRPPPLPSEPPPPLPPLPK
Description: CDK9/CyclinT1 Enzyme Reaction System
as §6, with “of CDK9/CyclinT1” for “of CDK2/CyclinA2”, “enzyme (4” for “enzyme (1.6”, “ATP (100” for “ATP (50”, “ATP, 0.2” for “ATP, 0.1”, “for 120” for “for 60”, “0.5 seconds.” for “0.5 seconds”
as §5

[1] = tested on: human ovarian cancer OVCAR-3 cells subcutaneous xenograft tumor; assay: In vivo efficacy study, OVCAR-3 subcutaneous xenograft tumor BALB/c nude mouse model; conditions: for Tumor volume (Day 0): Day 0 (at grouping), OVCAR-3 xenograft, BALB/c nude mice; for Tumor volume (Day 7): 10 mg/kg from day 0 to day 7; for Tumor volume (Day 14): 10 mg/kg from day 0 to day 14; for Tumor volume (Day 21): 10 mg/kg day 0 to day 14, 30 mg/kg from day 14 to day 21
Description: In vivo efficacy study of human ovarian cancer OVCAR-3 cells subcutaneous xenograft tumor BALB/c nude mouse model
Cell culture: Human ovarian cancer OVCAR-3 cells were monolayer cultured in vitro, the culture conditions were 10% fetal bovine serum, 100 U/mL Penicillin and 100 μg/mL Streptomycin were added in RPMI 1640 medium, cultured at 37° C. 5% CO2 incubator. Conventional digestion with trypsin-EDTA was performed for passage. When the cell saturation was 80%/90% and the number reached the required level, the cells were collected, counted, and inoculated.
Animals: BALB/c nude mice, female, 6-8 weeks old, weighed 18-22 grams. A total of 95 (42+ additional 53) animals were needed, provided by the Experimental Animal Management Department of Shanghai Institute of Family Planning Sciences (formerly Shanghai Sipulbichem).
Tumor inoculation: 0.2 mL (1×10^7) OVCAR-3 cells (with matrix glue, volume ratio of 1:1) were subcutaneously inoculated on the right back of each mouse, and the mice were grouped administrated when the average tumor volume reached about 150 mm^3.
Dosage and frequency of administration: Day 0 to Day 7, 10 mg/kg; Day 7 to Day 14, 10 mg/kg; Day 14 to Day 21, 30 mg/kg;
Experimental index: The experimental index was used to examine whether tumor growth was inhibited, delayed or cured. Tumor diameters were measured with vernier calipers twice a week. The calculation formula of tumor volume was: V=0.5a×b^2, wherein a and b represented the long and short diameters of the tumor, respectively.

[2] = Pharmacokinetic evaluation in CD-1 (ICR) mice, oral; assay type: in vivo, mouse; conditions: male CD-1 (ICR) mice, oral 5 mg/kg, plasma
Description: Experimental Scheme of Compounds 18, 19 and 20
The healthy adult male CD-1 (ICR) mice used in this study were purchased from Pinghu Weitong Lihua Experimental Animal Technology Co., Ltd.
0.300 mL of the stock solution was measured and vortexed for 2 minutes to obtain a homogeneous suspension at a concentration of 1 mg/mL, and the administration vehicle was 1% HPMC in water.
Two male CD-1 (ICR) mice were given 5 mg/kg of the compound to be tested by intragastric administration.
The blood of two animals was collected at each time point by serial blood collection. 30 μL of whole blood was collected respectively at 0.25, 0.5, 1, 2, 4, 8, and 24 hours after administration. The whole blood was placed in an anticoagulant tube, centrifuged at 3200 g for 10 minutes at 4° C., plasma was prepared and stored at −60° C. or lower. The drug concentration in plasma was determined by LC/MS-MS.

Chain of CDK6/CyclinD1 (Q00534 whole entry): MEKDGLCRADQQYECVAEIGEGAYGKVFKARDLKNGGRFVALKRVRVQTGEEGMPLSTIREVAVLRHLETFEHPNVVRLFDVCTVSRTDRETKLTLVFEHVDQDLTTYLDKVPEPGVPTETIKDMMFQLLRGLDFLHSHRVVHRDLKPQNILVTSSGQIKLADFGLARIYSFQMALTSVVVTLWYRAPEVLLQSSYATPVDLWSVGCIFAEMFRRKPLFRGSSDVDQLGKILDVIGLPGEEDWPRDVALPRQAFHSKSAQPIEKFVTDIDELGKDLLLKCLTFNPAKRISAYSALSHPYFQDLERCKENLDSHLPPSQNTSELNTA
Chain of CDK6/CyclinD1 (P24385 whole entry partner): as the sequence (P24385 whole entry partner) above

Row | Compound | pIC50 (CDK6/CyclinD1) | pIC50 (CDK4/CyclinD1) | pIC50 (CDK2/CyclinA2) | pIC50 (CDK2/CyclinE1) | pIC50 (OVCAR-3 cells) | pIC50 (CDK1/CyclinB1) | pIC50 (CDK9/CyclinT1) | Tumor volume (Day 0) [1] [mm^3] | Tumor volume (Day 7) [1] [mm^3] | Tumor volume (Day 14) [1] [mm^3] | Tumor volume (Day 21) [1] [mm^3] | Oral exposure AUC0-t [2] [µM·h]
1 | C[C@@]1(O)CCC[C@H]1Nc1nc(C(F)F)cc2cnc(NC3CCN(S(C)(=O)=O)CC3)nc12 [Compound 14] | 8.77 | 8.59 | 8.90 | 8.38 |  |  |  |  |  |  |  | 
2 | CS(=O)(=O)N1CCC(Nc2ncc3cc(C(F)F)nc(N[C@H]4CCCC4(F)F)c3n2)CC1 (single isomer, unassigned) [Compound 21] | 9.47 | 9.34 |  | 8.36 | 7.82 | 8.07 | 7.82 |  |  |  |  | 
3 | Cc1cc2cnc(NC3CCN(S(C)(=O)=O)CC3)nc2c(N[C@@H]2CCC[C@@]2(C)O)n1 (racemic) [Compound 6] | 8.81 | 8.97 | 9.28 |  |  |  |  |  |  |  |  | 
4 | CS(=O)(=O)N1CCC(Nc2ncc3ccnc(NC4CCCC4)c3n2)CC1 [Compound 4] | 8.83 | 8.82 | 9.57 |  |  |  |  |  |  |  |  | 
5 | C[C@@H]1CCCN1c1nc(C(F)F)cc2cnc(NC3CCN(S(C)(=O)=O)CC3)nc12 [Compound 25] | 9.34 |  |  | 8.40 | > 9.00 |  |  | 151 | 226 | 371 | 611 | 
6 | C[C@@]1(O)CCC[C@H]1Nc1nccc2cnc(NC3CCN(S(C)(=O)=O)CC3)nc12 [Compound 1] | 8.64 | 8.41 | 9.25 | 8.78 |  | 8.57 |  |  |  |  |  | 
7 | CC(Nc1nc(C(F)F)cc2cnc(NC3CCN(S(C)(=O)=O)CC3)nc12)C(F)(F)F (stereo not shown) [Compound 18] | 8.88 | 8.81 |  | 8.33 | 7.77 |  |  | 151 | 233 | 393 | 529 | 2.365
